Test [1] concerns the target 72 kDa type IV collagenase (Homo sapiens, UniProt P08253). The test can be described thus: Dose Response validation of uHTS RPN11 inhibitor hits using a MMP-2 Fluorescence assay. In kind it is functional.
For test [2], the target named is T1, Histone-lysine N-methyltransferase NSD2 (Homo sapiens, UniProt O96028).
T1 sequence (O96028 whole entry): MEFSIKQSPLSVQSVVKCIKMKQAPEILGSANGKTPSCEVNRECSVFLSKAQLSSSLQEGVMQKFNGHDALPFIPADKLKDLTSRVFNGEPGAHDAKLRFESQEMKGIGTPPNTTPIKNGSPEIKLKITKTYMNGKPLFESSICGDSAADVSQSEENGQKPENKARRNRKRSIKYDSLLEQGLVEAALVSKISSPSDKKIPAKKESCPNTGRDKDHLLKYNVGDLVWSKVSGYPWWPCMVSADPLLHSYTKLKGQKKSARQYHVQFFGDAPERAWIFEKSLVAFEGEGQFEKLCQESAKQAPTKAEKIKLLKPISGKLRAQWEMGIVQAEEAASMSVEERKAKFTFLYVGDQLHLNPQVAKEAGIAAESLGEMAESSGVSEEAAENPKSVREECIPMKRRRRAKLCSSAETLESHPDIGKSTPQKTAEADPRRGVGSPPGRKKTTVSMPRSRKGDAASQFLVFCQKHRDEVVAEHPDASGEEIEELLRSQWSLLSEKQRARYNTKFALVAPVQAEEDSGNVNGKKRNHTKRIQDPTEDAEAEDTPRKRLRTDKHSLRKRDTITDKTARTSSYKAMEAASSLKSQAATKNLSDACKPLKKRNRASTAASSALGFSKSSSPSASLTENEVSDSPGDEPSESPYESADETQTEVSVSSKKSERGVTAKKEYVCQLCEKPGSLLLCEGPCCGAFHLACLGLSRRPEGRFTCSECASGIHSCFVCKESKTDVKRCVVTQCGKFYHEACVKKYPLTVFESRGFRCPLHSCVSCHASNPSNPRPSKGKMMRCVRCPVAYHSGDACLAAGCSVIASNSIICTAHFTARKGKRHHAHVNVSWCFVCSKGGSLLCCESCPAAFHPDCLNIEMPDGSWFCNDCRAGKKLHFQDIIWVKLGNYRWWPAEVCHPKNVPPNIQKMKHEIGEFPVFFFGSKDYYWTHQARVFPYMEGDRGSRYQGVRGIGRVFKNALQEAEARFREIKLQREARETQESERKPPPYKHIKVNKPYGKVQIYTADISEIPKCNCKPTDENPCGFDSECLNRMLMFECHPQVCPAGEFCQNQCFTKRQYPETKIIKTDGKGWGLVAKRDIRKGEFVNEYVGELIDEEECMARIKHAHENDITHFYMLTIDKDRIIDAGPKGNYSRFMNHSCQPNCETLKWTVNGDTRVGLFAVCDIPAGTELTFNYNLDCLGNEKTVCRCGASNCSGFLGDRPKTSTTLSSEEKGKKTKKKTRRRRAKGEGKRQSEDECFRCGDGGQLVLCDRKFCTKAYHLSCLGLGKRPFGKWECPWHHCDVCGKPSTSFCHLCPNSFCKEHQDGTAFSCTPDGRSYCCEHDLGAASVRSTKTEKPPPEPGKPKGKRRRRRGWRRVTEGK
The format is biochemical.

Test [3] addresses 26S proteasome non-ATPase regulatory subunit 14 (Homo sapiens, UniProt O00487). Kind of test: inhibition of proteasome subunit RPN11 – biochemical, fluorescence polarization, uHTS hits, confirmation (AID 602368). The format is functional.
The target in test [4] is Multidrug resistance protein CDR2 (Candida albicans (strain SC5314 / ATCC MYA-2876) (Yeast), UniProt P78595). Kind of test: CaCDR2 efflux pump inhibitors in yeast, dose response, S. cerevisiae AD1-8u, singleplex, Cherry Pick1 hits (AID 588604). The format is functional.
For test [5], the target named is Intestinal-type alkaline phosphatase (Homo sapiens, UniProt P09923). The test can be described thus: activation of human intestinal alkaline phosphatase – biochemical, dose response (AID 488873). In kind it is functional.
For a further test, the target named is Large T antigen (Simian virus 40, UniProt P03070). In kind it is functional, Betapolyomavirus macacae.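 Note: Confirmatory-stage PubChem screen for compounds that inhibit SV40 T antigen.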
Test [6] has as its target T2, Alkaline phosphatase, tissue-nonspecific isozyme (Homo sapiens, UniProt P05186).
T2 sequence (P05186 whole entry): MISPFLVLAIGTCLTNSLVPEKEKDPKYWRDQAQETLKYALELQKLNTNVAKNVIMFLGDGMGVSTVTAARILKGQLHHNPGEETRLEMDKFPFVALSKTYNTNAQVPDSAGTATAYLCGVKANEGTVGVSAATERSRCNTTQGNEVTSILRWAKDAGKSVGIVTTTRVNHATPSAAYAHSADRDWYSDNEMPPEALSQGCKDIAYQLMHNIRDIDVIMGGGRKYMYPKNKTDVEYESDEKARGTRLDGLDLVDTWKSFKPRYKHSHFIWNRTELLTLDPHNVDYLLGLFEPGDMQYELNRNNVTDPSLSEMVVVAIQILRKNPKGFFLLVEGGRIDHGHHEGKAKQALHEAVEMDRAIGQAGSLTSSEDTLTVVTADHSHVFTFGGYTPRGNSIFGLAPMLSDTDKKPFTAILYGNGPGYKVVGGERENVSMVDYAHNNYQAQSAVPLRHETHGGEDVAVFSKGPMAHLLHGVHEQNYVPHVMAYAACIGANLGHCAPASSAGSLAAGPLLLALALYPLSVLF
Kind of test: TNAP enzyme activators, dose response, selectivity assay for mouse IAP activator project, biochemical, TNAP isozyme, mouse IAP uHTS hits (AID 488880). The format is functional.

Test [7] has as its target Intestinal-type alkaline phosphatase (Mus musculus, UniProt P24822). The test can be described thus: mouse intestinal alkaline phosphatase activators, dose response, biochemical, luminescence, uHTS hits (AID 488783). The format is functional.
Test [8] has as its target Benomyl/methotrexate resistance protein (Candida albicans, UniProt P28873). Kind of test: CaMdr1 efflux pump inhibitor potency, dose response, singleplex, Cherry Pick1 hits (AID 588608). In kind it is functional.
The target in another test is Prothrombin (Bos taurus, UniProt P00735). The test can be described thus: thrombin inhibition, dose response, biochemical, fluorescence polarization, uHTS hits (AID 602369). The format is functional.
Test [9] concerns the target FAD-linked sulfhydryl oxidase ALR (Homo sapiens, UniProt P55789). The test can be described thus: inhibitors of human ALR sulfhydryl oxidase, dose response, biochemical, H2O2 detection, luminescence, cherry-pick (AID 493248).
For test [10], the target named is Neuropeptides B/W receptor type 1 (Homo sapiens, UniProt P48145). Kind of test: GPR7 antagonist potency, late-stage follow-up, cell-based, fluorescence, dose response, set 6 (AID 588583). The format is functional.
Test [11] deals with Melanin-concentrating hormone receptor 1 (Homo sapiens, UniProt Q99705). Kind of test: Late-stage fluorescence-based counterscreen for antagonists of the G-protein coupled receptor 7 (GPR7): cell-based dose response assay to identify antagonists of the melanin-concentrating hormone receptor 1 (MCHR1) Set 6. The format is functional. A general note: Counterscreens check selectivity or assay interference.

The nature of test [12]: THP-1 cell cytotoxicity, cytotoxicity control, set 5 (AID 588443). In kind it is functional.
Test [13] deals with cAMP-dependent protein kinase catalytic subunit alpha (Homo sapiens, UniProt P17612). In kind it is functional.
Test [14] addresses Cell division cycle 7-related protein kinase (Homo sapiens, UniProt O00311). The format is functional.
Test [15] deals with Mitogen-activated protein kinase kinase kinase kinase 4 (Homo sapiens, UniProt O95819). In kind it is functional.
For test [16], the target named is Interleukin-1 receptor-associated kinase 4 (Homo sapiens, UniProt Q9NWZ3). The format is functional.
Test [17] has as its target Homeodomain-interacting protein kinase 2 (Homo sapiens, UniProt Q9H2X6). The format is functional.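 Note: measured within a kinome-wide kinase profiling panel, HIPK2 being one panel member.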
For test [18], the target named is Serine/threonine-protein kinase pim-1 (Homo sapiens, UniProt P11309). In kind it is functional.
The target of test [19] is Dual specificity protein kinase CLK4 (Homo sapiens, UniProt Q9HAZ1). The format is functional.
The target of test [20] is Cyclin-dependent kinase 2 (Homo sapiens, UniProt P24941). The format is functional.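 Note: CDK2 measured as one member of a broad kinome profiling panel.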
Test [21] has as its target Glycogen synthase kinase-3 beta (Homo sapiens, UniProt P49841). In kind it is functional.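 Note: value comes from a broad kinome profiling panel, with GSK3B as the panel member.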
Test [22] deals with Serine/threonine-protein kinase PLK3 (Homo sapiens, UniProt Q9H4B4). The format is functional.
Test [23] has as its target Serine/threonine-protein kinase PLK1 (Homo sapiens, UniProt P53350). In kind it is functional.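 Note: PLK1 measured as one member of a kinome-wide profiling panel.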
For test [24], the target named is Serine/threonine-protein kinase PAK 4 (Homo sapiens, UniProt O96013). The format is functional.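 Note: value obtained within a kinome profiling panel in which PAK4 was one of the panel members.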
Test [25] concerns the target Serine/threonine-protein kinase MRCK alpha (Homo sapiens, UniProt Q5VT25). The format is functional.
The target in test [26] is Serine/threonine-protein kinase Chk2 (Homo sapiens, UniProt O96017). The format is functional.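 Note: CHEK2 entry within a kinome-wide screening panel.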
Test [27] deals with MAP kinase-activated protein kinase 2 (Homo sapiens, UniProt P49137). The format is functional.
The target of test [28] is Protein kinase C gamma type (Homo sapiens, UniProt P05129). In kind it is functional.
Test [29] concerns the target Ribosomal protein S6 kinase alpha-3 (Homo sapiens, UniProt P51812). The format is functional.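 Note: measured within a kinome-wide profiling panel.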
The next test has as its target Ephrin type-A receptor 2 (Homo sapiens, UniProt P29317). In kind it is functional.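 Note: EPHA2 tested as one member of a kinome-wide kinase panel.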
Test [30] deals with Protein kinase C zeta type (Homo sapiens, UniProt Q05513). The format is functional.
The target of test [31] is RAC-alpha serine/threonine-protein kinase (Homo sapiens, UniProt P31749). The format is functional.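 Note: AKT1 affinity measured as one member of a kinome-wide kinase profiling panel.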
Test [32] addresses Ribosomal protein S6 kinase beta-1 (Homo sapiens, UniProt P23443). The format is functional.
In a further test the target is Aurora kinase A (Homo sapiens, UniProt O14965). The format is functional.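 Note: value from the Navigating the Kinome kinase panel profiling, panel entry STK6.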
In test [33] the target is Protein kinase C delta type (Homo sapiens, UniProt Q05655). The format is functional.
The target in test [34] is MAP/microtubule affinity-regulating kinase 3 (Homo sapiens, UniProt P27448). The format is functional.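 Note: MARK3 affinity measured as one member of a kinome panel.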
In test [35] the target is Cyclin-dependent kinase 1 (Homo sapiens, UniProt P06493). The format is functional.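 Note: Kinome-wide panel profiling, with the target listed as panel member CDC2.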
In test [36] the target is 5'-AMP-activated protein kinase catalytic subunit alpha-1 (Homo sapiens, UniProt Q13131). In kind it is functional.
Test [37] concerns the target Casein kinase II subunit alpha (Homo sapiens, UniProt P68400). In kind it is functional.
Test [38] has as its target RAC-gamma serine/threonine-protein kinase (Homo sapiens, UniProt Q9Y243). In kind it is functional.
For test [39], the target named is Fibroblast growth factor receptor 1 (Homo sapiens, UniProt P11362). In kind it is functional.
Test [40] addresses Serine/threonine-protein kinase Chk1 (Homo sapiens, UniProt O14757). The format is functional.

Active and inactive are the calls of the source.

The IC50 is the concentration needed to halve the response being measured. By AC50 is commonly meant the concentration at which the activity in the assay is half-maximal. By EC50 is commonly meant the concentration that produces a half-maximal response. Usually CC50 stands for the concentration at which the toxic effect on the cells reaches its halfway point. As usually defined, the Ki is a dissociation constant, usually derived from enzyme kinetics or from competition with a known ligand.

Sequence of Serine/threonine-protein kinase pim-1 (P11309 whole entry): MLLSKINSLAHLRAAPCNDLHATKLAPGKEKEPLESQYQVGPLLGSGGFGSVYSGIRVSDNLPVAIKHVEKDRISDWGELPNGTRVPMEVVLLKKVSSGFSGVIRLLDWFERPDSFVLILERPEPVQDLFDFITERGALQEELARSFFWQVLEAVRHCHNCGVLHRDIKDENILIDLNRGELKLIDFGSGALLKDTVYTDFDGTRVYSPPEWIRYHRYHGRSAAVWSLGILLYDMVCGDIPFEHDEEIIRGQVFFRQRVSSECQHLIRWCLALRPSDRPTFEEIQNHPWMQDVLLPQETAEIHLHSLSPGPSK
Sequence of Glycogen synthase kinase-3 beta (P49841 whole entry): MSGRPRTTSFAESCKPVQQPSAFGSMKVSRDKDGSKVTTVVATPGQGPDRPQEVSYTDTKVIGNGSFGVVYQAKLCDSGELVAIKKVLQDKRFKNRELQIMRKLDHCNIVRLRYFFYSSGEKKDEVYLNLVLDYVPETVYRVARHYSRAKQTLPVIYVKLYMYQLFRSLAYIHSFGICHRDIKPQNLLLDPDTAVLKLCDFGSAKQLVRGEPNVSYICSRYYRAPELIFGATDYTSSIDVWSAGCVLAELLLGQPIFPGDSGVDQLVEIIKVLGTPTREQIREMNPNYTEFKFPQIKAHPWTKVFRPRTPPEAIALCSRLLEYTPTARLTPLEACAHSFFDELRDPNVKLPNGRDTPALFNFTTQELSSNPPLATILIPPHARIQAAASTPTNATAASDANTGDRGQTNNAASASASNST
Sequence of Serine/threonine-protein kinase Chk2 (O96017 whole entry): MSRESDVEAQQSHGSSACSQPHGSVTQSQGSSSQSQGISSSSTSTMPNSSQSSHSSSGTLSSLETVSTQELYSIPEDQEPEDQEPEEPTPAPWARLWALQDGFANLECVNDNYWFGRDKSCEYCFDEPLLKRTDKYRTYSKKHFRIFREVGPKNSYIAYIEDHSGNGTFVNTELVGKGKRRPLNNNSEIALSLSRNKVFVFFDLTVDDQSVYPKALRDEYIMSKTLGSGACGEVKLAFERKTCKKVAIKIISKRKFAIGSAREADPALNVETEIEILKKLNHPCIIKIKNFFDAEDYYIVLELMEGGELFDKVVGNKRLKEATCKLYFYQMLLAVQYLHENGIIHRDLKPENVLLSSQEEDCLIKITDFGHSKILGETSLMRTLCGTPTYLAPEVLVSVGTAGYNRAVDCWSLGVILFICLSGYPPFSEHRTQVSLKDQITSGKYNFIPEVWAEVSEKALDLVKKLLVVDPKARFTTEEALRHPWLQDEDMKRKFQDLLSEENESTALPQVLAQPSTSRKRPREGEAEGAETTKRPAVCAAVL
Sequence of Serine/threonine-protein kinase PLK3 (Q9H4B4 whole entry): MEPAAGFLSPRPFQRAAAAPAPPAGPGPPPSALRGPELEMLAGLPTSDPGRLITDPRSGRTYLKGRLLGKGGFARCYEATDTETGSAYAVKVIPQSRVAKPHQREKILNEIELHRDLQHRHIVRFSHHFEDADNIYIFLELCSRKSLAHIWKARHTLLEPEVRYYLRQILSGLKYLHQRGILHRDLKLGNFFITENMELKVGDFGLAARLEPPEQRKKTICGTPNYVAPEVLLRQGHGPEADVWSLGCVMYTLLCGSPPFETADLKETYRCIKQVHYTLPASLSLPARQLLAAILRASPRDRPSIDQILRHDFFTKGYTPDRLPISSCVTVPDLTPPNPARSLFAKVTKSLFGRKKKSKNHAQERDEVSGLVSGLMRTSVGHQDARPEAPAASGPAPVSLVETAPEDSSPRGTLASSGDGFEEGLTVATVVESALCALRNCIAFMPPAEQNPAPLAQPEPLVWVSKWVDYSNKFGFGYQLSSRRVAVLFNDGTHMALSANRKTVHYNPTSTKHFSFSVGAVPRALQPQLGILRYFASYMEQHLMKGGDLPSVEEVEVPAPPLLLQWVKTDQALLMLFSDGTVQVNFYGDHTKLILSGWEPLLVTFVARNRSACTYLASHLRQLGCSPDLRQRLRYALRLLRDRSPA
Sequence of MAP/microtubule affinity-regulating kinase 3 (P27448 whole entry): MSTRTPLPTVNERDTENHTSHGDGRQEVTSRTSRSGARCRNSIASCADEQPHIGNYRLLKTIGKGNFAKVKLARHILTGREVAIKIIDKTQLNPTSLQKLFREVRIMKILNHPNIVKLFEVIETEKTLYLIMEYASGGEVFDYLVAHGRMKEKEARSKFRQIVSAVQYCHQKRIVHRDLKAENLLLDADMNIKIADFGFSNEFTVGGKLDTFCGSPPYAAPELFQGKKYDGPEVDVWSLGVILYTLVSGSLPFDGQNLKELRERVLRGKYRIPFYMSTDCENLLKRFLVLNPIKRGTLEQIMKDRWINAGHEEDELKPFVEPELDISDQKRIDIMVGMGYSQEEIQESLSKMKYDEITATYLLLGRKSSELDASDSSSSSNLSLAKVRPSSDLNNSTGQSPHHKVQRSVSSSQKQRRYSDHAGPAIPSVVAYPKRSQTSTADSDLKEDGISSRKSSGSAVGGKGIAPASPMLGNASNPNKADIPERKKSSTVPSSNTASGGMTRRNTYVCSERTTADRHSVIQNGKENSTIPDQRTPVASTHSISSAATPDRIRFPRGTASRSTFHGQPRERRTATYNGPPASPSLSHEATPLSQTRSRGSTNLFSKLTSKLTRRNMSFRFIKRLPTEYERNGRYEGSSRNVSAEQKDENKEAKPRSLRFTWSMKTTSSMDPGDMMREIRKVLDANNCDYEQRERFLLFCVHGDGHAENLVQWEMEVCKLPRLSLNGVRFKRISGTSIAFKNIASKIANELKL
Sequence of Serine/threonine-protein kinase PLK1 (P53350 whole entry): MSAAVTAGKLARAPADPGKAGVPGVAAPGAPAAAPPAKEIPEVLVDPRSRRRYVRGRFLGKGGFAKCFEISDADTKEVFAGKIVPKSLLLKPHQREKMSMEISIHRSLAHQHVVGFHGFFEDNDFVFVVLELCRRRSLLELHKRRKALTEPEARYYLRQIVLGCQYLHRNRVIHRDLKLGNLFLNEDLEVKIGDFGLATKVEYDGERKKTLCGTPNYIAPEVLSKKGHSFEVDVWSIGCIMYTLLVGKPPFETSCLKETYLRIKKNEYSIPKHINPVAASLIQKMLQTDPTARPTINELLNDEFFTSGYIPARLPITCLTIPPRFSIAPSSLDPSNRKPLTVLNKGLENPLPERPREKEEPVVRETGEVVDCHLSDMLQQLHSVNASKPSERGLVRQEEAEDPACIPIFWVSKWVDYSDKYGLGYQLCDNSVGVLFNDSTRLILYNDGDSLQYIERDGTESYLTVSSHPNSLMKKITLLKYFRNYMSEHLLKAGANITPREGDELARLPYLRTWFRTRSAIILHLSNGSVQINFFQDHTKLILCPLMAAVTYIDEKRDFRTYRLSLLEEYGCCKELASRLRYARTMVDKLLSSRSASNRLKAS
Sequence of MAP kinase-activated protein kinase 2 (P49137 whole entry): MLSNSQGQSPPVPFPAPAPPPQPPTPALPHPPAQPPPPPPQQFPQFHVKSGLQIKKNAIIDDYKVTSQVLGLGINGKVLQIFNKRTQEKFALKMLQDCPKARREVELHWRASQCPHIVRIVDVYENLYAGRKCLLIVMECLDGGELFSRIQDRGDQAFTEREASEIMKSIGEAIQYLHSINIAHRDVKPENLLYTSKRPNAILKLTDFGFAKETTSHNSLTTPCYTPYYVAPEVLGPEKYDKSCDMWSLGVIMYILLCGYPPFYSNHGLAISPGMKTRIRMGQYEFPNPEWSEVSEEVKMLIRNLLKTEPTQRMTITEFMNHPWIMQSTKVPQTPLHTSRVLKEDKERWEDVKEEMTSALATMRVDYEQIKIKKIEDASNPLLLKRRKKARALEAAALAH
Sequence of Ribosomal protein S6 kinase beta-1 (P23443 whole entry): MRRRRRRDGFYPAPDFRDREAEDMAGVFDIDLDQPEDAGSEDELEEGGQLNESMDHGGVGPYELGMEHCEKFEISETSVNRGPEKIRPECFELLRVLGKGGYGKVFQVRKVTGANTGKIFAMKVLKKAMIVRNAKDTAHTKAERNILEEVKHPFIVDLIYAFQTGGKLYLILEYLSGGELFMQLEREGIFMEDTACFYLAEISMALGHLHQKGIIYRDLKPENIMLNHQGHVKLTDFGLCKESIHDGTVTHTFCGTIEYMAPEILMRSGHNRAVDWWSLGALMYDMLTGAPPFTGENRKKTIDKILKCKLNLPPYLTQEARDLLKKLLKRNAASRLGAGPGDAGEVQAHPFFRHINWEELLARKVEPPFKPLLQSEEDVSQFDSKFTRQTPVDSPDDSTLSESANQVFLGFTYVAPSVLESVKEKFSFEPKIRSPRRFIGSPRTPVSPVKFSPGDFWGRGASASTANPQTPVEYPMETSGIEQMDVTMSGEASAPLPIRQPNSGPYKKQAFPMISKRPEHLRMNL
Sequence of RAC-gamma serine/threonine-protein kinase (Q9Y243 whole entry): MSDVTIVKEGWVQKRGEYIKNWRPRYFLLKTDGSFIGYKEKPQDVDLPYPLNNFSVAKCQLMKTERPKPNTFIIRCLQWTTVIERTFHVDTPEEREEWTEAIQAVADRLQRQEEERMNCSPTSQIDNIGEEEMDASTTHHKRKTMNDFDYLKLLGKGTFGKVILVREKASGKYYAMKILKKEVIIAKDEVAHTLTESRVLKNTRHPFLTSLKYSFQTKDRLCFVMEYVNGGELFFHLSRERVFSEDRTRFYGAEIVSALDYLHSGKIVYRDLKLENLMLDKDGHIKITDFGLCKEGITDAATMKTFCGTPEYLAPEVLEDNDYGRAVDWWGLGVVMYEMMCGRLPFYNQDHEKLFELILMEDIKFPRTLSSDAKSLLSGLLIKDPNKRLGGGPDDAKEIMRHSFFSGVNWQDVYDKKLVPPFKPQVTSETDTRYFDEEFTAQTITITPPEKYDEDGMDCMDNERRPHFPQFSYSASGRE
Sequence of Cyclin-dependent kinase 1 (P06493 whole entry): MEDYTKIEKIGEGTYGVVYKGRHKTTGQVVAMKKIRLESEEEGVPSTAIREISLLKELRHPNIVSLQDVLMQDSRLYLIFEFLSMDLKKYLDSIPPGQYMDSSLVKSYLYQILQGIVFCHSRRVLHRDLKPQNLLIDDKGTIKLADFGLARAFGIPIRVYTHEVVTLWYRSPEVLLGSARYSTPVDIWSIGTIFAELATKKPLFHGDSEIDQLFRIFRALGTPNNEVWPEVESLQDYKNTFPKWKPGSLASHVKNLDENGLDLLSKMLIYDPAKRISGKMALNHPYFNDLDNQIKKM

As for `O=C(O)C(c1ccccc1)N1C(=O)/C(=C\c2ccc(O)c(O)c2)SC1=S` (stereo not drawn), the IC50 in [1] is 39.7 µM (active); in test [3] it was 26.3 µM (active); at Large T antigen, 7.85 µM (active); on Prothrombin, 30.7 µM (active). The concentration at half-maximal activity (AC50) in test [2] was 4.05 µM (active); in test [9], 0.208 µM (active). For the same molecule, the 50% effective concentration (EC50) in test [4] is 4.78 µM (active); in test [5] it was 59.1 µM (active); in test [6], 24.1 µM (active); in test [7], 61 µM (active); in test [8] it was 2.72 µM (active).
On to `CCOc1ccc(C(C#N)c2c(Cl)cnn(Cc3cccc4ccccc34)c2=O)c(F)c1F` (stereo not drawn), for which the IC50 in test [10] and in test [11] was 0.601 µM (active) each time.
Take `CC1CC(C)CN(C(=O)C2CCC(CNc3c(N4CCCCC4)c(=O)c3=O)CC2)C1` (stereo not drawn): in [12], the CC50 is > 30 µM (inconclusive).
As for `O=c1cc(-c2cccc(F)c2)[nH]c2c(-c3ccc(F)cc3)cnn12`, the Ki in [13] was > 7.94 µM (inactive); in [14], 0.0631 µM (active); in test [15], > 10 µM (inactive); in test [16], > 10 µM (inactive); in test [17], 0.501 µM (active); in [18] it was 0.126 µM (active). Moreover, the Ki is 0.158 µM (active) in test [19], > 7.94 µM (inactive) in [20] and 2 µM (active) in test [21].
Take `O=C1NC(=O)C(Nc2ccccc2)=C1Cl`: the Ki in [22] was > 20 µM (inactive); in test [13] it was > 20 µM (inactive); in test [23], > 20 µM (inactive); in test [24], > 12.6 µM (inactive); in test [25], > 25.1 µM (inactive); in test [26], > 25.1 µM (inactive). The Ki in test [27] was > 20 µM (inactive); in [28] it was > 20 µM (inactive); in [29], > 20 µM (inactive); on Ephrin type-A receptor 2, > 20 µM (inactive); in [30], > 20 µM (inactive); in test [18] it was 15.8 µM (active). The Ki in test [31] was > 20 µM (inactive); in test [32] it was > 15.8 µM (inactive); on Aurora kinase A it was 15.8 µM (active); in [33], > 20 µM (inactive); in [34], > 15.8 µM (inactive); in [20], > 20 µM (inactive). Also, the Ki in [35] is > 20 µM (inactive); in [36], > 25.1 µM (inactive); in test [37] it was > 15.8 µM (inactive); in test [38], > 25.1 µM (inactive); in [39], > 12.6 µM (inactive); in test [40], 12.6 µM (active). Moreover, in test [21], the Ki was 1 µM (active).

The record behind these values is ChEMBL document CHEMBL1201862, “PubChem BioAssay data set” (2004).
